Laboratory results reported in US4810702A, “Antibacterial agent for mammal use comprising cephalosporin derivatives as an effective ingredient” (Meiji Seika Kaisha, Ltd., priority 1986, dated 1989).
Values after ≈ are worked out from the molar mass of the structure shown. Counter-ions that a name gives are not always drawn. Like-named read-outs stand apart in the source and are kept apart here.

Experiments:
[1] = Acute toxicity test, Test Example 5; format: in vivo; details: mouse, in vivo, iv; ICR male mice, tail vein; 14 days
Experimental: (§1) 75 mg of each test compound was dissolved in 0.4 ml of phuysiological saline. The solution was administered to the tail vein of ICR strain male mice (mean body weight of 25 g, 5 weeks old) of one group being 3 mice. Observation was made for 14 days.

[2] = tested on: ICR strain male mice; assay: Acute toxicity test, Test Example 5; format: in vivo; details: for survival: ICR male mice, 75 mg in 0.4 ml, tail vein, 14 days
Experimental: as §1

[3] = tested on: Escherichia coli No. 29; assay: Effect to prevent infections in mice, Test Example 6; format: in vivo, ICR strain male mice; details: mouse, i.p. infection 2.3 × 10^5 CFU/mouse with mucin; s.c. one hour after; 7 days
Experimental: (§2) The culture solution of each test bacterium was adjusted to a bacterial concentration shown in the table and then supplemented with 2.5% (W/V) of mucin. The solution was intraperitoneally administered to ICR strain male mice (mean body weight of 20 g, 4 weeks old) of one group being 8 at a dose of 0.5 ml to experimentally cause infection. Each test compound was subcutaneously administered one hour after (provided that in case of Pseudomonas aeruginosa was given one hour and 3 hours after). Observation was made for 7 days.

[4] = tested on: Escherichia coli GN206; assay: as above; format: in vivo, ICR strain male mice; details: mouse, i.p. infection 9.5 × 10^6 CFU/mouse with mucin; s.c. one hour after; 7 days
Experimental: as §2

[5] = tested on: Pseudomonas aeruginosa GN10362; assay: as above; format: in vivo, ICR strain male mice; details: mouse, i.p. infection 8.8 × 10^5 CFU/mouse with mucin; s.c. one hour and 3 hours after; 7 days
Experimental: as §2

[6] = tested on: Klebsiella pneumoniae PCI 602; assay: as above; format: in vivo, ICR strain male mice; details: mouse, i.p. infection 6.5 × 10^4 CFU/mouse with mucin; s.c. one hour after; 7 days
Experimental: as §2

[7] = tested on: Escherichia coli No. 29; assay: MIC of the infecting strain, Table 2; format: cell-based
Experimental: (§3) The minimum growth inhibitory concentration (MIC) against various bacteria was measured in a bacterial count of 10^6 CFU/ml using medium SDA (NISSUI) in accordance with the Japan Chemotherapy Association.

[8] = tested on: Pseudomonas aeruginosa GN10362; assay: MIC of the infecting strain, Table 2; format: cell-based
Experimental: as §3

[9] = tested on: Klebsiella pneumoniae PCI 602; assay: MIC of the infecting strain, Table 2; format: cell-based; details: PCI602
Experimental: as §3

[10] = tested on: Citrobacter freundii GN346/16; assay: Minimum growth inhibitory concentration, Test Example 1; format: cell-based
Experimental: as §3

[11] = tested on: Pseudomonas aeruginosa M-0148; assay: as above; format: cell-based
Experimental: as §3

[12] = tested on: Escherichia coli 255/S-1; assay: as above; format: cell-based; details: 255/S1, 10^6 CFU/ml, medium SDA
Experimental: as §3

[13] = tested on: Escherichia coli 255; assay: as above; format: cell-based; details: 10^6 CFU/ml, medium SDA
Experimental: as §3

[14] = tested on: Escherichia coli W3630 RGN238; assay: as above; format: cell-based; details: W3630RGN238, read-out: Minimum Growth Inhibitory Concentration MIC
Experimental: as §3

[15] = tested on: Citrobacter freundii GN346/16-10; assay: as above; format: cell-based; details: GN346, read-out: Minimum Growth Inhibitory Concentration MIC
Experimental: as §3

[16] = tested on: Staphylococcus epidermidis ATCC 14990; assay: as above; format: cell-based
Experimental: as §3

[17] = tested on: Pseudomonas aeruginosa Ml Rms139; assay: as above; format: cell-based; details: MLRMS139, read-out: Minimum Growth Inhibitory Concentration MIC
Experimental: as §3

[18] = tested on: Pseudomonas aeruginosa IAM-1007; assay: as above; format: cell-based
Experimental: as §3

[19] = tested on: Bacillus subtilis ATCC6633; assay: as above; format: cell-based
Experimental: as §3

[20] = tested on: Staphylococcus aureus Smith (I); assay: as above; format: cell-based; details: read-out: Minimum Growth Inhibitory Concentration MIC
Experimental: as §3

[21] = tested on: Escherichia coli W3630 RGN823; assay: as above; format: cell-based; details: W3630RGN823, read-out: Minimum Growth Inhibitory Concentration MIC
Experimental: as §3

[22] = tested on: Citrobacter freundii GN346; assay: as above; format: cell-based
Experimental: as §3

[23] = tested on: Escherichia coli GN206; assay: Minimum growth inhibitory concentration; format: cell-based
Experimental: as §3

[24] = tested on: Escherichia coli, pneumobacilli and Pseudomons aeruginosa; assay: Effect to prevent infections, overall comparison with known compounds, Test Example 6; format: in vivo, ICR strain male mice; details: compared to the known compounds (CAZ, HR-810)
Experimental: as §2

[25] = tested on: clinically isolated Klebsiella pneumoniae, Proteus vulgaris and Pseudomonas aeruginosa; assay: Distribution in sensitivity of clinically isolated strains, Test Examples 2 to 4; format: cell-based; details: compared to known compounds
Experimental: Each MIC of various bacteria clinically isolated from patients was measured in a manner similar to Test Example 1 and its percentage to the all strains to reach the inhibitory concentration was accumulatively expressed .
Distribution in sensitivity to pneumobacilli clinically isolated.
Distribution in sensitivity to variant clinically isolated.
Distribution in sensitivity to Pseudomonas aeruginosa clinically isolated.

[26] = Concentration in blood plasma (rat) and in serum (common marmoset), Test Examples 7 and 8; format: in vivo, SD strain male rats; female common marmosets; details: various animal tests
Experimental: A test compound was dissolved in physiological saline in a concentration of 20 mg/ml. The solution was given in the tail vein of SD strain male rats (mean body weight of 325 g) of one group being 4 in a dose of 1 ml/kg. Blood was collected from the femoral artery in course of time and blood plasma was isolated from the blood. A concentration of the test compound in blood plasma was quantitatively assayed by high performance liquid chromatography. A test compound was dissolved in 0.05M phosphate buffer (pH 6.5) in a concentration of 2.0 mg/ml. The solution was intramuscularly administered to female common marmosets of one group being 2 in a dose of 5 ml/kg. Blood was collected from the femoral artery with passage of time and serum was separated from the blood followed by quantitative assay by bioassay using Escherichia coli K-12 HW 8236 as a bacterium for the assay.

[27] = Citrobacter freundii, GN346, read-out: Minimum Growth Inhibitory Concentration MIC
[28] = Klebsiella pneumoniae PCI 602, Table 2, read-out: MIC
[29] = Citrobacter freundii GN346/16, 10^6 CFU/ml, medium SDA, read-out: Minimum Growth Inhibitory Concentration MIC
[30] = M0148, Pseudomonas aeruginosa M-0148, 10^6 CFU/ml, medium SDA, read-out: Minimum Growth Inhibitory Concentration MIC
[31] = ATCC14990, Staphylococcus epidermidis ATCC 14990, 10^6 CFU/ml, medium SDA, read-out: Minimum Growth Inhibitory Concentration MIC
[32] = IAM1007, Pseudomonas aeruginosa IAM-1007, 10^6 CFU/ml, medium SDA, read-out: Minimum Growth Inhibitory Concentration MIC
[33] = Bacillus subtilis ATCC6633, 10^6 CFU/ml, medium SDA, read-out: Minimum Growth Inhibitory Concentration MIC
[34] = Staphylococcus aureus Smith (I), 10^6 CFU/ml, medium SDA
[35] = Citrobacter freundii GN346, 10^6 CFU/ml, medium SDA, read-out: Minimum Growth Inhibitory Concentration MIC
[36] = Escherichia coli GN206, Table 1, 10^6 CFU/ml, medium SDA, read-out: Minimum Growth Inhibitory Concentration MIC

With `CC(C)(ON=C(C(=O)NC1C(=O)N2C(C(=O)[O-])=C(C[n+]3ccccc3)CSC12)c1csc(N)n1)C(=O)O` [CAZ, (6R, 7R)-7-[(Z)-2-(2-aminothiazol-4-yl)-2-(2-methylcarboxyisoprop;oxyimino)acetamido]-3-pyridinium-1-ylmethyl-ceph-3-em-4-carboxylate] the LD50 at 336 h [1] was at least 4000 mg/kg, the survival [2] was “survived” and the “ED50 (preventive effect)” value [3] was 0.006 mg/mouse. For the same molecule, the “ED50 (preventive effect)” value [4] was 1.0 mg/mouse, the “ED50 (preventive effect)” value [5] was 8 mg/mouse and the “ED50 (preventive effect)” value [6] was 0.57 mg/mouse. It also gave an MIC [7] of 0.2 µg/mL, an MIC ([8]; Pseudomonas aeruginosa, GN10362) of 1.56 µg/mL and an MIC ([9]; Klebsiella pneumoniae) of 0.2 µg/mL. It also gave an MIC [10, 27] of 0.78 µg/mL (≈ 1.43 µM), an MIC ([11]; Pseudomonas aeruginosa, M0148, read-out: Minimum Growth Inhibitory Concentration MIC) of 1.56 µg/mL (≈ 2.85 µM) and an MIC [12] of 0.39 µg/mL (≈ 0.714 µM). It also gave an MIC [13] of 12.5 µg/mL (≈ 22.9 µM), an MIC [14] of 0.2 µg/mL (≈ 0.366 µM) and an MIC [15] of 25 µg/mL (≈ 45.7 µM). For the same molecule, the MIC ([16]; Staphylococcus epidermidis, ATCC14990, read-out: Minimum Growth Inhibitory Concentration MIC) was 3.13 µg/mL (≈ 5.73 µM), the MIC [17] was 0.78 µg/mL (≈ 1.43 µM) and the MIC ([18]; Pseudomonas aeruginosa, IAM1007, read-out: Minimum Growth Inhibitory Concentration MIC) was 0.78 µg/mL (≈ 1.43 µM). For the same molecule, the MIC ([19]; Bacillus subtilis, ATCC6633, read-out: Minimum Growth Inhibitory Concentration MIC) was 3.13 µg/mL (≈ 5.73 µM), the MIC ([20]; Staphylococcus aureus) was 3.13 µg/mL (≈ 5.73 µM) and the MIC [21] was 0.2 µg/mL (≈ 0.366 µM). It also gave an MIC [22, 27] of 25 µg/mL (≈ 45.7 µM), an MIC ([23]; Escherichia coli, GN206) of 1.56 µg/mL (≈ 2.85 µM) and an MIC ([23]; Escherichia coli, GN206, read-out: Minimum Growth Inhibitory Concentration MIC) of 1.56 µg/mL (≈ 2.85 µM).
For `CC[n+]1ccc(SCC2=C(C(=O)[O-])N3C(=O)[C@@H](NC(=O)/C(=N\O[C@@H](C)C(=O)O)c4csc(N)n4)[C@H]3SC2)cc1` [Compound I, (6R, 7R)-7-[(Z)-2-(2-aminothiazol-4-yl)-2-{(1S)-carboxyethoxyimino}acetamido]-3-(1-ethylpyridinium-4-ylthiomethyl)-ceph-3-em-4-carboxylate monosodium salt], the LD50 at 336 h [1] was at least 4000 mg/kg, the survival [2] was “survived” and the “toxicity (in words)” value ([2]; various animal tests) was “low toxicity”. For the same molecule, the “ED50 (preventive effect)” value [3] was 0.002 mg/mouse, the “ED50 (preventive effect)” value [4] was 0.36 mg/mouse and the “ED50 (preventive effect)” value [5] was 4.5 mg/mouse. The “ED50 (preventive effect)” value [6] was 0.33 mg/mouse, the “effect to prevent infections compared to the known compounds (in words)” value [24] was “equal to or superior to them” and the MIC [7] was 0.1 µg/mL. For the same molecule, the MIC ([8]; Pseudomonas aeruginosa GN10362, Table 2, read-out: MIC) was 1.56 µg/mL, the MIC [9, 28] was 0.05 µg/mL and the MIC [10, 29] was 0.39 µg/mL. For the same molecule, the MIC [11, 30] was 0.78 µg/mL, the MIC [12] was 0.1 µg/mL and the MIC [13] was 0.2 µg/mL. For the same molecule, the MIC [14] was 0.2 µg/mL, the MIC [16, 31] was 3.13 µg/mL and the MIC [17] was 0.78 µg/mL. For the same molecule, the MIC [18, 32] was 0.78 µg/mL, the MIC [19, 33] was 3.13 µg/mL and the MIC [20, 34] was 1.56 µg/mL. For the same molecule, the MIC [21] was 0.05 µg/mL, the MIC [22, 35] was 6.25 µg/mL and the “distribution in sensitivity to clinically isolated strains (in words)” value [25] was “much more excellent antibacterial activity over a wide range”. The “durability in a concentration to exhibit the antibacterial activity (in words)” value [26] was “sufficient durability in a concentration to exhibit the antibacterial activity”, the “transfer into blood and organ (in words)” value [26] was “rapidly transferred into blood and organ” and the MIC [23, 36] was 0.1 µg/mL. For the same molecule, the MIC ([23]; Escherichia coli GN206, Table 2, read-out: MIC) was 0.2 µg/mL.
For `CON=C(C(=O)NC1C(=O)N2C(C(=O)[O-])=C(C[n+]3cccc4c3CCC4)CSC12)c1csc(N)n1` [HR-810, (6R, 7R)-7-[(Z)-2-(2-aminothiazol-4-yl)-2-(methoxyimino)acetamido]-3-cyclopentenopyridinium-1-ylmethyl-ceph-3-em-4-carboxylate], the LD50 at 336 h [1] was at least 4000 mg/kg, the survival [2] was “survived” and the “ED50 (preventive effect)” value [3] was 0.006 mg/mouse. The “ED50 (preventive effect)” value [6] was 1.3 mg/mouse, the MIC [7] was 0.05 µg/mL and the MIC [9, 28] was 0.05 µg/mL. It also gave an MIC [10, 29] of 0.05 µg/mL (≈ 0.0972 µM), an MIC [11, 30] of 12.5 µg/mL (≈ 24.3 µM) and an MIC [12] of 0.05 µg/mL (≈ 0.0972 µM). For the same molecule, the MIC [13] was 0.2 µg/mL (≈ 0.389 µM), the MIC [14] was 0.78 µg/mL (≈ 1.52 µM) and the MIC [16, 31] was 0.39 µg/mL (≈ 0.758 µM). For the same molecule, the MIC [17] was 3.13 µg/mL (≈ 6.08 µM), the MIC [18, 32] was 12.5 µg/mL (≈ 24.3 µM) and the MIC [19, 33] was 0.1 µg/mL (≈ 0.194 µM). For the same molecule, the MIC [20, 34] was 0.39 µg/mL (≈ 0.758 µM), the MIC [21] was 0.1 µg/mL (≈ 0.194 µM) and the MIC [22, 35] was 0.78 µg/mL (≈ 1.52 µM). The MIC [23, 36] was under 0.025 µg/mL.
